# Reference: patent US8691851B2, “Lanthanide metal complexes useful in treating cancer” (National University of Singapore, priority 2009, dated 2014)
# Key:
# Format in all cases: cell-based
# RhoB = RhoB induction after preincubation with PPAR-γ antagonist; conditions: SHEP-1 cells, 10 uM GW9662 for 2 hours, then 10 uM C19H24N3O5S5Pr for 4 hours
# Experimental: SHEP-1 cancer cells were preincubated with 10 uM GW9662, a pharmacological PPAR-γ antagonist that was able to abrogate the induction of RhoB protein by C19H24N3O5S5Pr, or vehicle control for 2 hours before being exposed to 10 uM of C19H24N3O5S5Pr for 4 hours.
# PPARγ = molecular target: T1, PPARγ (Homo sapiens, UniProt P37231); design: endogenous in cells; host or cells: SHSY5Y, SHEP1 / SHEP-1 (neuroblastoma); conditions: SHSY5Y and SHEP1 cells in 10% serum, 0 to 10 μM, 18 hours
# T1 sequence (P37231 1-505): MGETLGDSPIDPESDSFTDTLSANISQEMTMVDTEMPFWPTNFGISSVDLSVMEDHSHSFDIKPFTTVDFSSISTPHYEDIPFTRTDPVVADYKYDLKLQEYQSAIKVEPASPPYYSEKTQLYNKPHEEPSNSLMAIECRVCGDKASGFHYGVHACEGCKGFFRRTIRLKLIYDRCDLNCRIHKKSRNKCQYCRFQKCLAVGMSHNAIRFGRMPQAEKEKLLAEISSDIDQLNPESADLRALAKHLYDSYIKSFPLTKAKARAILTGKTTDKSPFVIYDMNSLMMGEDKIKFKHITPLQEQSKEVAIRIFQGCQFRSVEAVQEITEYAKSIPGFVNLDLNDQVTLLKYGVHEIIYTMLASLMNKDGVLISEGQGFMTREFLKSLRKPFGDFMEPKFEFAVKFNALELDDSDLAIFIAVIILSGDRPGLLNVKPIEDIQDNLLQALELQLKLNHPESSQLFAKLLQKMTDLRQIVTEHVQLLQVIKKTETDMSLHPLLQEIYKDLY
# Experimental: To determine if C19H24N3O5S5Pr activates PPARγ, SHSY5Y and SHEP1 neuroblastoma cells were transiently co-transfected with a 3×PPRE luciferase plasmid and renilla plasmid for transfection efficiency. Forty eight hours following transfection, the cells were exposed to increased concentrations (0 to 10 μM) of 15d-PGJ2 and C19H24N3O5S5Pr for 18 hours. The fold increase in luciferase activity correlates with the PPARγ activity of the cell. PPARγ activity is determined by calculating the RLU/renilla/μg total protein.
# To assess if C19H24N3O5S5Pr activation of PPARγ is dependent on expression of PPARγ neuroblastoma cells, neuroblastoma cells SHEP1 and SHSY5Y were transiently co-transfected with a 3×PPRE luciferase plasmid and renilla plasmid for transfection efficiency. Forty eight hours following transfection, cells were exposed to increased concentrations (0 to 20 μM) of C19H24N3O5S5Pr for 18 hours. PPARγ activity was calculated as luciferase RLU/renilla/μg total protein.
# LC3 II = LC3 II formation by Western blot; conditions: SHSY5Y cells, 5 or 10 mM 3MA for 2 hours, then 10 uM C19H24N3O5S5Pr for 7 hours
# [1] = tested on: SHEP-1 and MDA-MB-231 cancer cells; assay: Morphological changes of cancer cells; conditions: 10 mM 3MA, then 5 μM (SHEP-1) or 10 μM (MDA-MB-231) C19H24N3O5S5Pr
smiles,measurement,setting,value
O=C(Nc1ccccc1)c1cc([N+](=O)[O-])ccc1Cl [GW9662],RhoB expression induced by C19H24N3O5S5Pr after antagonist preincubation,RhoB,RhoB was not expressed
"CCCCC/C=C/C=C1/C(=O)C=CC1C/C=C\CCCC(=O)O (stereo not shown) [15dPGJ2, 15-deoxy-Delta-12,14, prostaglandin, reference compound]",PPARγ activation (luciferase RLU/renilla/μg total protein),PPARγ,did not display any PPARγ activation
"Cn1cnc(N)c2ncnc1-2 [3MA, 3-methyl adenine, reference compound]",LC3 II levels induced by C19H24N3O5S5Pr after 3MA preincubation,LC3 II,LC3 II levels were reduced
same,cell morphology after 3MA preincubation followed by C19H24N3O5S5Pr,[1],did not demonstrate this death-like morphology
